Drawing on patent US10556902B2 (Asceneuron SA, priority 2016, dated 2020), this text covers IC50 for 38 compounds.

Structures are written as SMILES. A value given as a limit tells only on which side of the number the result lay.

The target of this experiment is His-Tagged hOGA (human O-GlcNAcase) (Homo sapiens (Human), UniProt O60502). Put plainly: Human O-GlcNAcase enzyme inhibition assay.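 Note: reactions contained 20 nM His-tagged hOGA enzyme with 10 µM FL-GlcNAc substrate.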 Conditions: OGA enzyme inhibition assay; FL-GlcNAc substrate, pH 6.5; activity classes defined in μM; read-out: OGA IC50. Format: biochemical.
Sequence of His-Tagged hOGA (human O-GlcNAcase) (O60502 whole entry): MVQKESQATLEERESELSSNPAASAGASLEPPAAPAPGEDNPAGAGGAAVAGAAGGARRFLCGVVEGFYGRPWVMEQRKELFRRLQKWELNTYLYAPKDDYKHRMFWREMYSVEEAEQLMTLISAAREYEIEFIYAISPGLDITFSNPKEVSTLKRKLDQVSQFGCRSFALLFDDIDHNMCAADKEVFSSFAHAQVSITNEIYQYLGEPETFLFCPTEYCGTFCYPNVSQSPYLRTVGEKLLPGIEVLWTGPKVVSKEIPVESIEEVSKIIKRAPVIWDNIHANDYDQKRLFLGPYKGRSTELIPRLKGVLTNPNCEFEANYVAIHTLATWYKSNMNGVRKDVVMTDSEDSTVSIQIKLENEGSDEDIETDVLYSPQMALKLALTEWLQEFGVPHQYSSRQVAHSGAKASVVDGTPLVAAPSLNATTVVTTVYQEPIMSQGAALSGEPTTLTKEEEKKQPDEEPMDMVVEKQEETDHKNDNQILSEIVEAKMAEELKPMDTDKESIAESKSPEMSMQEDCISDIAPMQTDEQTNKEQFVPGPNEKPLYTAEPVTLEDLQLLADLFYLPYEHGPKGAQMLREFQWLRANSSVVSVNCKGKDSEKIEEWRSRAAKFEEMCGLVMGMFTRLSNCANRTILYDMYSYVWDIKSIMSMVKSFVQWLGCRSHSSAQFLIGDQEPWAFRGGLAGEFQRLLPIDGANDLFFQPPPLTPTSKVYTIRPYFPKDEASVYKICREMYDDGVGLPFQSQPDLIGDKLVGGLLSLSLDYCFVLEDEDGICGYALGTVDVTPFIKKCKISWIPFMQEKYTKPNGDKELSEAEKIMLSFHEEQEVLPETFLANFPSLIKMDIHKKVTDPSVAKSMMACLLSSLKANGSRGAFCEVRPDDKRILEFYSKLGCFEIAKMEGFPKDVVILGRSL
Procedure: Then, 20 nM of His-Tagged hOGA and 10 μM of FL-GlcNAc (Fluorescein mono-beta-D-(2-deoxy-2-N-acetyl) glucopyranoside; Marker Gene Technologies Inc, M1485) were added to the 384-well plate for a final volume of 20 μl.
Consider `CC(c1ccc2nccnc2c1)N1CCN(c2ccc(=O)[nH]c2)CC1` (racemic) [Example 54, 5-(4-(1-(quinoxalin-6-yl)ethyl)piperazin-1-yl)pyridin-2(1H)-one], for which the IC50 – broadly, the concentration at which inhibition is half-maximal – was 0.2 to 1 µM.
Then `CC(C)C(O)c1ccc(N2CCN(C(C)c3ccc4nccnc4c3)CC2)nc1` (racemic) [Example 55, 2-methyl-1-(6-(4-(1-(quinoxalin-6-yl)ethyl)piperazin-1-yl)pyridin-3-yl)propan-1-ol], with 0.2 to 1 µM; and `CC(c1ccc2nccnc2c1)N1CCN(c2ccc(C(O)C(F)(F)F)cn2)CC1` (racemic) [Example 56, 2,2,2-trifluoro-1-(6-(4-(1-(quinoxalin-6-yl)ethyl)piperazin-1-yl)pyridin-3-yl)ethan-1-ol], with 0.05 to 0.2 µM.
With `CC(c1ccc2nccnc2c1)N1CCN(c2ccc(C3(O)CCOCC3)cn2)CC1` (racemic) [Example 57, 4-(6-(4-(1-(quinoxalin-6-yl)ethyl)piperazin-1-yl)pyridin-3-yl)tetrahydro-2H-pyran-4-ol] the figure was 0.05 to 0.2 µM; with `CC(c1ccc2nccnc2c1)N1CCN(c2ccc(C3(O)CCOC3)cn2)CC1` (racemic) [Example 58, 3-(6-(4-(1-(quinoxalin-6-yl)ethyl)piperazin-1-yl)pyridin-3-yl)tetrahydrofuran-3-ol], 0.05 to 0.2 µM; with `CC(c1ccc2nccnc2c1)N1CCN(c2ccc(C3(O)COC3)cn2)CC1` (racemic) [Example 59, 3-(6-(4-(1-(quinoxalin-6-yl)ethyl)piperazin-1-yl)pyridin-3-yl)oxetan-3-ol], 0.05 to 0.2 µM.
With `CC(c1ccc2nccnc2c1)N1CCN(c2ccc(C3(O)CCCCC3)cn2)CC1` (racemic) [Example 60, 1-(6-(4-(1-(quinoxalin-6-yl)ethyl)piperazin-1-yl)pyridin-3-yl)cyclohexan-1-ol] the figure was 0.2 to 1 µM.
Regarding `CC(c1ccc2nccnc2c1)N1CCN(c2ccc(C3(O)CCCC3)cn2)CC1` (racemic) [Example 61, 1-(6-(4-(1-(quinoxalin-6-yl)ethyl)piperazin-1-yl)pyridin-3-yl)cyclopentan-1-ol], the IC50 fell in the range of 0.05 to 0.2 µM.
For `COC(=O)c1ccc(N2CCN(C(C)c3ccc4c(c3)OCC4)CC2)nc1` (racemic) [Example 62, Methyl 6-(4-(1-(2,3-dihydrobenzofuran-6-yl)ethyl)piperazin-1-yl)nicotinate], the IC50 was less than 0.05 µM.
Then `CC(c1ccc2c(c1)OCC2)N1CCN(c2ccc(C(=O)N(C)C)cn2)CC1` (racemic) [Example 63, 6-(4-(1-(2,3-dihydrobenzofuran-6-yl)ethyl)piperazin-1-yl)-N,N-dimethylnicotinamide], with less than 0.05 µM; and `CNC(=O)c1ccc(N2CCN(C(C)c3ccc4c(c3)OCC4)CC2)nc1` (racemic) [Example 64, 6-(4-(1-(2,3-dihydrobenzofuran-6-yl)ethyl)piperazin-1-yl)-N-methylnicotinamide], with less than 0.05 µM; and `CC(c1ccc2c(c1)OCC2)N1CCN(c2ccc(C(=O)O)cn2)CC1` (racemic) [Example 65, 6-(4-(1-(2,3-Dihydrobenzofuran-6-yl)ethyl)piperazin-1-yl)nicotinic acid], with less than 0.05 µM.
On to `COC(=O)c1ccc(N2CCN(C(C)c3ccc4nccnc4c3)CC2)nc1` (racemic) [Example 66, Methyl-6-(4-(1-(quinoxalin-6-yl)ethyl)piperazin-1-yl) nicotinate], for which the IC50 is 0.05 to 0.2 µM.
With `CC(c1ccc2nccnc2c1)N1CCN(c2ccc(C(=O)O)cn2)CC1` (racemic) [Example 67, 6-(4-(1-(quinoxalin-6-yl)ethyl)piperazin-1-yl) nicotinic acid] the figure was 0.05 to 0.2 µM; with `CNC(=O)c1cccc(N2CCN(C(C)c3ccc4nccnc4c3)CC2)n1` (racemic) [Example 68, N-methyl-6-(4-(1-(quinoxalin-6-yl)ethyl)piperazin-1-yl) picolinamide], 0.05 to 0.2 µM; with `CC(c1ccc2nccnc2c1)N1CCN(c2cccc(C(=O)N(C)C)n2)CC1` (racemic) [Example 69, N, N-dimethyl-6-(4-(1-(quinoxalin-6-yl)ethyl)piperazin-1-yl) picolinamide], 0.2 to 1 µM.
Regarding `COC(=O)c1cccc(N2CCN(C(C)c3ccc4nccnc4c3)CC2)n1` (racemic) [Example 70, Methyl 6-(4-(1-(quinoxalin-6-yl)ethyl)piperazin-1-yl)picolinate], the IC50 lay within 0.2 to 1 µM.
As to `CC(c1ccc2c(c1)OCC2)N1CCN(c2ccc(S(C)(=O)=O)cn2)CC1` (racemic) [Example 71], the IC50 is less than 0.05 µM.
With `CC(c1ccc2nccnc2c1)N1CCN(c2ccc(S(C)(=O)=O)cn2)CC1` (racemic) [Example 72, 6-(1-(4-(5-(methylsulfonyl)pyridin-2-yl)piperazin-1-yl)ethyl)quinoxaline], the IC50 lay in the range of 0.05 to 0.2 µM.
With `CC(c1ccc2scnc2c1)N1CCN(c2ncc(CO)cn2)CC1` (racemic) [Example 73, (2-(4-(1-(benzo[d]thiazol-5-yl)ethyl)piperazin-1-yl)pyrimidin-5-yl)methanol] the figure was less than 0.05 µM; with `CC(c1ccc2c(c1)OCC2)N1CCN(c2ncc(C(C)(C)O)cn2)CC1` (racemic) [Example 74, 2-(2-(4-(1-(2,3-dihydrobenzofuran-6-yl)ethyl)piperazin-1-yl)pyrimidin-5-yl) propan-2-ol], less than 0.05 µM.
Then `CC(c1ccc2c(c1)OCC2)N1CCN(c2ncc(CO)cn2)CC1` (racemic) [Example 75, (2-(4-(1-(2,3-Dihydrobenzofuran-6-yl)ethyl)piperazin-1-yl)pyrimidin-5-yl) methanol], with less than 0.05 µM; and `CC(c1ccc2c(c1)OCC2)N1CCN(c2ncc(C3(O)CC3)cn2)CC1` (racemic) [Example 76, 1-(2-(4-(1-(2,3-dihydrobenzofuran-6-yl)ethyl)piperazin-1-yl)pyrimidin-5-yl)cyclopropan-1-ol], with less than 0.05 µM; and `CC(c1ccc2c(c1)OCC2)N1CCN(c2ncc(C(O)C(F)(F)F)cn2)CC1` (racemic) [Example 77, 1-(2-(4-(1-(2,3-dihydrobenzofuran-6-yl)ethyl)piperazin-1-yl)pyrimidin-5-yl)-2,2,2-trifluoroethan-1-ol], with less than 0.05 µM.
For the compound `CC(C)C(O)c1cnc(N2CCN(C(C)c3ccc4c(c3)OCC4)CC2)nc1` (racemic) [Example 78, 1-(2-(4-(1-(2,3-dihydrobenzofuran-6-yl)ethyl)piperazin-1-yl)pyrimidin-5-yl)-2-methylpropan-1-ol], the IC50 is less than 0.05 µM.
With `CC(c1ccc2c(c1)OCC2)N1CCN(c2ncc(C3(O)CCOC3)cn2)CC1` (racemic) [Example 79, 3-(2-(4-(1-(2,3-dihydrobenzofuran-6-yl)ethyl)piperazin-1-yl)pyrimidin-5-yl)tetrahydrofuran-3-ol] the figure was less than 0.05 µM; with `CC(c1ccc2c(c1)OCC2)N1CCN(c2ncc(C3(O)CCCCC3)cn2)CC1` (racemic) [Example 80, 1-(2-(4-(1-(2,3-dihydrobenzofuran-6-yl)ethyl)piperazin-1-yl)pyrimidin-5-yl)cyclohexan-1-ol], less than 0.05 µM.
Then `CC(c1ccc2c(c1)OCC2)N1CCN(c2ncc(C3(O)CCOCC3)cn2)CC1` (racemic) [Example 81, 4-(2-(4-(1-(2,3-dihydrobenzofuran-6-yl)ethyl)piperazin-1-yl)pyrimidin-5-yl)tetrahydro-2H-pyran-4-ol], with less than 0.05 µM; and `CC(c1ccc2c(c1)OCC2)N1CCN(c2ncc(C3(O)COC3)cn2)CC1` (racemic) [Example 82, 3-(2-(4-(1-(2,3-dihydrobenzofuran-6-yl)ethyl)piperazin-1-yl)pyrimidin-5-yl)oxetan-3-ol], with less than 0.05 µM; and `CC(c1ccc2cccnc2n1)N1CCN(c2ncc(C(O)C(F)(F)F)cn2)CC1` (racemic) [Example 83, 1-(2-(4-(1-(1,8-naphthyridin-2-yl)ethyl)piperazin-1-yl)pyrimidin-5-yl)-2,2,2-trifluoroethan-1-ol], with less than 0.05 µM.
Then `CC(O)c1cnc(N2CCN(C(C)c3ccc4nccnc4c3)CC2)nc1` (racemic) [Example 84, 1-(2-(4-(1-(quinoxalin-6-yl)ethyl)piperazin-1-yl)pyrimidin-5-yl) ethan-1-ol], with 0.05 to 0.2 µM; and `CC(c1ccc2nccnc2c1)N1CCN(c2ncc(C(C)(C)O)cn2)CC1` (racemic) [Example 85, 2-(2-(4-(1-(quinoxalin-6-yl)ethyl)piperazin-1-yl)pyrimidin-5-yl) propan-2-ol], with 0.05 to 0.2 µM.
Take `CC(c1ccc2nccnc2c1)N1CCN(c2ncc(CO)cn2)CC1` (racemic) [Example 86, (2-(4-(1-(Quinoxalin-6-yl)ethyl)piperazin-1-yl)pyrimidin-5-yl) methanol]: the half-maximal inhibitory concentration (IC50) fell in the range of 0.05 to 0.2 µM.
Then `CC(c1ccc2nccnc2c1)N1CCN(c2ncc(C(O)C(F)(F)F)cn2)CC1` (racemic) [Example 87, 2,2,2-trifluoro-1-(2-(4-(1-(quinoxalin-6-yl)ethyl)piperazin-1-yl)pyrimidin-5-yl)ethan-1-ol], with 0.05 to 0.2 µM.
With `CC(C)C(O)c1cnc(N2CCN(C(C)c3ccc4nccnc4c3)CC2)nc1` (racemic) [Example 88, 2-methyl-1-(2-(4-(1-(quinoxalin-6-yl)ethyl)piperazin-1-yl)pyrimidin-5-yl) propan-1-ol] the figure was 0.05 to 0.2 µM.
In the case of `CC(c1ccc2nccnc2c1)N1CCN(c2ncc(C3(O)CCOCC3)cn2)CC1` (racemic) [Example 89, 4-(2-(4-(1-(quinoxalin-6-yl)ethyl)piperazin-1-yl)pyrimidin-5-yl)tetrahydro-2H-pyran-4-ol], the IC50 lay in the range of 0.05 to 0.2 µM.
With `Cc1cnc(N2CCN(C(C)c3ccc4c(c3)OCC4)CC2)nc1` (racemic) [Example 90, 2-(4-(1-(2,3-dihydrobenzofuran-6-yl)ethyl)piperazin-1-yl)-5-methylpyrimidine] the figure was less than 0.05 µM.
Then `CC(c1ccn2ccnc2c1)N1CCN(c2ncc(C(F)(F)F)cn2)CC1` (racemic) [Example 91, 7-(1-(4-(5-(trifluoromethyl)pyrimidin-2-yl)piperazin-1-yl)ethyl)imidazo[1,2-a]pyridine], with 1 to 10 µM.
